{
  "source": "patent US20230322805A1",
  "about": "“NOVEL PYRIMIDODIAZEPINE DERIVATIVES OR USES THEREOF” (SPARK BIOPHARMA, INC., priority 2020, published 2023)",
  "key": {"[1]": {"test_system": "LC3-1 to LC3-II conversion (autophagy)", "assay": "Immunoblot of LC3-1 to LC3-II conversion and p62 in HEK293 BiFC-tau cells", "format": "cell-based, human", "settings": "5 μM SB1617, presence or absence of 500 nM TG, 6 hours"}, "[2]": {"test_system": "BiFC-tau Venus HEK293 cells (tau aggregation, hTau441)", "assay": "BiFC-tau Venus HEK293 cell assay monitoring tau aggregation under thapsigargin", "format": "cell-based, human", "protocol": "Phenotype-based screening to monitor tau assembly was performed using BiFC-tau Venus HEK293 cells in a high-throughput manner. Cells were seeded in 384-well plates at a density of 2.8×10^3 cells/well in 40 μL medium for 24 hours. Cells were treated with 80 nM thapsigargin (Sigma-Aldrich) in 10 μL medium and then ˜ 3,000 pDOS library compounds (10 μM), including compounds according to the present invention, using a 0.1 μL pinning tool. For knockdown experiments, cells were transfected with 5 or 10 nM siRNA using Lipofectamine RNAiMAX and incubated for 48 hours before thapsigargin treatment. […] Plates were scanned on an INCell Analyzer 2000 (GE Healthcare) at λex/λem=490/525 nm for Venus fluorescence (for the FITC channel) and λex/λem=350/455 nm for nuclei (for the DAPI channel). Bright-field images were taken to confirm cell morphology, and images were analyzed to quantify Venus intensity per cell using developer software (GE Healthcare).\n1-1. According to the method described in Examples 1-15 above, the expression of Venus-based bimolecular fluorescence complemented-tau (BiFC-tau) was confirmed using HEK293 human embryonic kidney cells, thereby phenotyping the phenotype-based screening was performed.\nThe N-terminal Venus (VN173) and C-terminal Venus (VC155) fragment sequences are fused with the full-length human tau (hTau441) sequence to form the BiFC-tau Venus HEK293 cell system. Soluble tau dimers can be measured by monitoring the turn-on/off signal of Venus fluorescence through co-expression of the two fused vectors, hTau441-VN173 and hTau441-VC1 55.\nAs a stimulator of tau aggregation, thapsigargin (TG; an ER stress inducer), a direct inhibitor of sarco/endoplasmic reticulum Ca2^+-ATPase, was used. This disrupts calcium homeostasis. Thapsigargin treatment induces tau dimerization (tau aggregation), which can be confirmed by BiFC-tau Venus fluorescence turn-on."}, "DNAJC3": {"molecular_target": "T1, DNAJC3 (Homo sapiens, UniProt Q13217)", "T1 sequence (Q13217 32-504)": "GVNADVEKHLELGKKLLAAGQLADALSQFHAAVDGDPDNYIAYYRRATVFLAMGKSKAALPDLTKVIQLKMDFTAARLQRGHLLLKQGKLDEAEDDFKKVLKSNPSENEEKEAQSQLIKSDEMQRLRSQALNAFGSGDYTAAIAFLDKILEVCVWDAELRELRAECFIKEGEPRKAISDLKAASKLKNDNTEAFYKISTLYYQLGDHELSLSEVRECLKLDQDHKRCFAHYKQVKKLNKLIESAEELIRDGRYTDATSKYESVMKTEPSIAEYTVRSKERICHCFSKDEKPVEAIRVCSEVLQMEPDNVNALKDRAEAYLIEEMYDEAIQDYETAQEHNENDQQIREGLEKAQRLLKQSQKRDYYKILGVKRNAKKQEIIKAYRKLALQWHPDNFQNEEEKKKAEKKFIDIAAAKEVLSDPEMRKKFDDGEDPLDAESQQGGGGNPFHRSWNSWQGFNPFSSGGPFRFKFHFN", "assay": "CETSA and pull-down assay with probe SB1624", "format": "binding", "set-up": "endogenous in cells; host or cells: HEK293 BiFC-tau cells (TS-FITGE, CETSA); SH-SY5Y cells (pull-down with probe SB1624)", "settings": "CETSA 10 μM in HEK293 BiFC-tau cells; pull-down 5 μM SB1624 with or without 40 μM SB1617 in SH-SY5Y cells", "protocol": "HEK293 BiFC-tau cells were treated with DMSO (0.1%) and a compound according to the present invention (10 μM) in the presence of thapsigargin (200 nM) for 3 hours. The cell suspension was heated at the indicated temperature range for 3 minutes and then at 25° C. for 3 minutes. The heated cells were washed with PBS and resuspended in Lysis Buffer A. For cell lysis, cell suspensions were freeze-thawed in liquid nitrogen three times. The cell lysate was washed by centrifugation at 20000 g, 4° C. for 20 minutes. Equal volumes of washed cell lysate were combined with SDS buffer and subjected to immunoblotting.\nSH-SY5Y cells were seeded in 6-well plates and then treated with 1 μM thapsigargin and 5 μM SB1624 (probe compound) for 2.5 hours with or without 40 μM SB1617. Cells were exposed to 356 nm UV irradiation for 30 min on ice. After washing with cold PBS, cells were lysed in RIPA buffer and removed by centrifugation at […] for 15 minutes at 4° C. The protein concentration of the supernatant was determined by Pierce BCA Protein Assay Kit and the protein concentration was adjusted to 1 mg/mL. […] Proteins were eluted by boiling with 3×SDS sample buffer and analyzed by SDS-PAGE and Western blot. […]"}},
  "data": [
    {"smiles": "CN(Cc1ccc(Cl)cc1)c1ncnc2c1[C@@H]1OC[C@H](CN2)N1S(=O)(=O)c1ccc([N+](=O)[O-])cc1", "note": "[Compound 117]", "values": [
      {"measurement": "conversion from LC3-1 to LC3-II", "setting": "[1]", "value": "conversion from light chain 3-1 (LC3-1) to LC3-II was confirmed"},
      {"measurement": "BiFC-Venus fluorescence induced by thapsigargin (FITC channel image)", "setting": "[2]; 10 μM SB1617 with 80 nM thapsigargin, 24 hours", "value": "suppresses BiFC-Venus fluorescence"},
      {"measurement": "IC50", "setting": "[2]; Homo sapiens, HEK293, inhibition of BiFC-tau Venus fluorescence, 80 nM thapsigargin, table head prints no unit, μM, read-out: BiFC-tau intensity (IC50)", "value": 1.9, "unit": "µM"},
      {"measurement": "activity at 10 µM", "setting": "[2]; Homo sapiens, HEK293-BiFC-tau-Venus cells co-treated with 10 μM compound and 80 nM thapsigargin for 24 hours, read-out: BiFC-tau intensity (%)", "value": 36, "unit": "%"},
      {"measurement": "change in Venus fluorescence intensity", "setting": "[2]; various concentrations with 80 nM TG for 20 hours", "value": "dose dependent"},
      {"measurement": "specific binding (CETSA, pull-down)", "setting": "DNAJC3", "value": "specifically binds"}
    ]}
  ]
}
